Source: patent US7122203B2, “Stabilized formulations of 6-hydroxy-3-(-4-[2-(piperidin-1-yl) ethoxy]phenoxy)-2-(4-methoxyphenyl) benzo[b]thiophene and salts thereof” (Eli Lilly and Company, priority 2000, dated 2006)

Columns and labels:
Format in all cases: physicochemical
[1] = Aqueous solubility and dissolution rate of crystal forms
[2] = Physical stability of crystal forms (XRD at different relative humidities, variable temperature XRD)
Method: XRD patterns were obtained on a […] powder diffractometer, equipped with a CuKα source (λ=1.54056 Å) and a Kevex solid-state detector, operating at 50 kV and 40 mA. Each sample was scanned between 4° and 35° in 2θ. Samples were allowed to equilibrate for at least 30 minutes at the desired temperature and/or relative humidity before data collection. Variable temperature X-ray powder diffraction patterns were obtained on a […] powder diffractometer which was equipped with a CuKα source (λ=1.54056 Å) operated at 50 kV and 40 mA with a scintillation detector and nickel filter. The powder was packed into a top-loading, recessed temperature controlled holder and a smooth surface was obtained for diffraction. The sample was scanned from 2 to 35° 2θ at 2.5 seconds per step size of 0.04° beginning at 25° C. after an equilibration time of 5 minutes. Subsequent scans were obtained at increasing temperature increments of 25° C. to a maximum of 125° C.

[3] = Hygroscopicity / moisture sorption isotherms; details: for water content: ambient relative humidities (about 50% R.H.); for water content / immediate weight gain (moisture): hydrochloride; for immediate weight gain (moisture): upon initial exposure to approximately 5% R.H.
Method: Hygroscopicity measurements were made for F-I and F-III using the VTI method as follows. Each sample was dried under vacuum at 60° C. until no further weight loss was detected, at which time the sample chamber was brought to 0% relative humidity. Moisture sorption isotherms were obtained at 25° C. using a VTI vacuum moisture balance with the following conditions: sample size 10–15 mg, adsorption/desorption range 0–95% relative humidity, step interval 5%, sample interval 10 minutes.
Moisture Sorption Isotherms were generated using a VTI SGA-100 flow instrument. The samples were analyzed at 25° C. from 0–95% relative humidity (RH) for adsorption and from 95–5% RH for desorption in steps of 5% RH. The adsorption and desorption isotherms were generated as a graph of the % weight change vs. % RH.

Compound | aqueous solubilities and dissolution rates of the two forms (F-I vs F-III) [1] | physical stability over the entire relative humidity range [2] | water content [3] | immediate weight gain (moisture) ([3]; 25° C.) [%] | higher aqueous solubility relative to F-III [1] [%] | thermodynamic stability among known forms of arzoxifene hydrochloride ([2]; ambient storage conditions) | change in diffraction pattern, variable temperature x-ray powder diffraction ([2]; up to 125° C.) | weight increase in moisture sorption/desorption isotherm ([3]; over the range of 0–95% RH, 25° C.) [%]
COc1ccc(-c2sc3cc(O)ccc3c2Oc2ccc(OCCN3CCCCC3)cc2)cc1.Cl [F-I, 6-Hydroxy-3-(4-[2-(piperidin-1-yl)ethoxy]phenoxy)-2-(4-methoxyphenyl)benzo[b]thiophene hydrochloride] | comparable | physically stable | about 2.2% | 1.5 | – | – | – | –
COc1ccc(-c2sc3cc(O)ccc3c2Oc2ccc(OCCN3CCCCC3)cc2)cc1.Cl [F-III, 6-Hydroxy-3-(4-[2-(piperidin-1-yl)ethoxy]phenoxy)-2-(4-methoxyphenyl)benzo[b]thiophene hydrochloride] | comparable | physically stable | about 3.7% | 1.7 | – | – | – | –
COc1ccc(-c2sc3cc(O)ccc3c2Oc2ccc(OCCN3CCCCC3)cc2)cc1.Cl [F-V, 6-Hydroxy-3-(4-[2-(piperidin-1-yl)ethoxy]phenoxy)-2-(4-methoxyphenyl)benzo[b]thiophene hydrochloride] | – | – | – | – | ~10 | thermodynamically most stable known form | no significant change | 0.11
